For assay [1], the system named is P. falciparum (NF54) stage V gametocytes. Description: Stage V gametocyte viability assay (MitoTracker Red CMXRos high content imaging). Format: cell-based, Plasmodium falciparum. Conditions: Plasmodium falciparum; for inhibition at 2 µM: read-out: Stg V Gam primary screen: Inhibition % (2uM) (n=2); for pIC50: read-out: GAM V IC50, stage V gametocytes, 72 h.
Assay [2] has as its system P. falciparum Dd2 (PfLuc) line expressing firefly luciferase, asexual blood stage. The experiment in a line: microbe, parasite or virus in culture. Format: cell-based, Plasmodium falciparum. Conditions: Plasmodium falciparum, DD2, 8-pt dose response, 96hr.
The mark [3] stands for this setting: NF54, 72 h, read-out: Stg V Gam dose response IC50 (µM) (n=3), 10-point dose response, n=3, 72 h.

Each structure is given as a SMILES string. pIC50: −log10 of the molar value. Read-outs that look alike come from different tables or passages of the source.

Take `Cc1cccc(CN2CCC3(CCN(c4cccnc4)C3=O)C2)n1` (stereo not shown) [DDD01033290, CC1=CC=CC(CN2CCC3(CCN(C3=O)C3=CC=CN=C3)C2)=N1]: in assay [1] (NF54, read-out: Stg V Gam dose response IC50 (µM) (n=3), 10-point dose response, n=3, 72 h), the IC50 was found to be 0.46 µM. In addition, the inhibition at 2 µM in assay [1] (NF54, Table S6, 2uM, n=2, 72 h) worked out at 75.8%.
Regarding `CN(Cc1ccco1)C[C@H]1OC[C@@H]2CCN(Cc3ccccn3)C[C@@H]21` [DDD01033585, CN(C[C@H]1OC[C@@H]2CCN(CC3=CC=CC=N3)C[C@H]12)CC1=CC=CO1], in assay [2] (read-out: P. falciparum Luciferase ABS 8-pt Reconfirmation Dose Response (96hr): IC50), the pIC50 is 5.78. In addition, the Emax in assay [2] (read-out: P. falciparum Luciferase ABS 8-pt Reconfirmation Dose Response (96hr): Maximum inhibition (%)) turned out to be 91.7%. Further, the IC50 in assay [1] (setting [3]) was determined as 3.17 µM. Also, the inhibition at 2 µM in assay [1] (NF54, 72 h) was 76%.
On to `CO[C@H]1CCN(Cc2cccc(C)n2)[C@@H]2CN(Cc3cccnc3)C[C@H]12` [DDD01036932, CO[C@H]1CCN(CC2=CC=CC(C)=N2)[C@@H]2CN(CC3=CC=CN=C3)C[C@H]12], for which the IC50 in assay [1] (setting [3]) was 0.276 µM. Further, the inhibition at 2 µM in assay [1] (NF54, 72 h) stood at 78.9%.
For the molecule `Cc1cc(C)n(C2=NC(NCCC(C)C)c3c(sc4c3CCCC4)N2)n1` (stereo not shown) [DDD01037468, CC(C)CCNC1N=C(NC2=C1C1=C(CCCC1)S2)N1N=C(C)C=C1C], in assay [1] (setting [3]), the IC50 was above 10 µM.
As to `Cc1cc(C)n(C2=NC(NCCCO)c3c(sc4c3CCCC4)N2)n1` (stereo not shown) [DDD01037469, CC1=NN(C(C)=C1)C1=NC(NCCCO)C2=C(N1)SC1=C2CCCC1], the IC50 in assay [1] (setting [3]) stood at 0.39 µM. Besides, the inhibition at 2 µM in assay [1] (NF54, 72 h) is 91.5%.
`c1ccc(CCN2CCCC2c2cccc(Nc3nccs3)n2)cc1` (stereo not shown) [DDD01056785, C(CC1=CC=CC=C1)N1CCCC1C1=CC=CC(NC2=NC=CS2)=N1]: in assay [1] (NF54, 72 h), the pIC50 was 6.41 and the inhibition at 2 µM stood at 73.4%. In assay [1] (setting [3]), the IC50 is 0.392 µM.
Regarding `Cc1cnc(Nc2cccc(C3CCCN3Cc3cn(C)nc3C)n2)s1` (stereo not shown) [DDD01056825, CN1C=C(CN2CCCC2C2=NC(NC3=NC=C(C)S3)=CC=C2)C(C)=N1], in assay [1] (NF54, 72 h), the pIC50 is 7.05 and the inhibition at 2 µM is 85.8%. Further, in assay [1] (setting [3]), the IC50 came out at 0.095 µM.
Take `Cc1ccccc1CN1CCCC1c1cccc(Nc2nccs2)n1` (stereo not shown) [DDD01057017, CC1=CC=CC=C1CN1CCCC1C1=CC=CC(NC2=NC=CS2)=N1]: in assay [1] (NF54, 72 h), the pIC50 is 6.59. In addition, in assay [1] (setting [3]), the IC50 stood at 0.261 µM.
As for `Cc1nn(C)cc1CN1CCCC1c1cccc(Nc2nccs2)n1` (stereo not shown) [DDD01057079, CN1C=C(CN2CCCC2C2=CC=CC(NC3=NC=CS3)=N2)C(C)=N1], in assay [1] (NF54, 72 h), the pIC50 is 6.24 and the inhibition at 2 µM worked out at 84.4%. In addition, in assay [1] (setting [3]), the IC50 is 0.578 µM.
The corresponding values for `COc1cccc(CN2CCCC2c2cncc(Nc3nncs3)n2)c1` (stereo not shown) [DDD01058609, COC1=CC=CC(CN2CCCC2C2=CN=CC(NC3=NN=CS3)=N2)=C1] are 6.28, 63.5% and 0.534 µM.
Regarding `Cc1cccc(CN2CCCC2c2cncc(Nc3nncs3)n2)c1` (stereo not shown) [DDD01058843, CC1=CC=CC(CN2CCCC2C2=CN=CC(NC3=NN=CS3)=N2)=C1], in assay [1] (NF54, 72 h), the pIC50 is 6.49 and the inhibition at 2 µM turned out to be 78.8%. For the same molecule, in assay [1] (setting [3]), the IC50 is 0.319 µM.
Consider `Cc1cccc(CNC(Cc2ccsc2)c2nc(C)c(C)s2)n1` (stereo not shown) [DDD01059048, CC1=C(C)N=C(S1)C(CC1=CSC=C1)NCC1=CC=CC(C)=N1], for which the IC50 in assay [1] (setting [3]) worked out at 3.9 µM. The inhibition at 2 µM in assay [1] (NF54, 72 h) came out at 65.3%.
The corresponding values for `Cc1nc(Nc2ncccn2)cc(C2CCCN2CC(C)C)n1` (stereo not shown) [DDD01061131, CC(C)CN1CCCC1C1=CC(NC2=NC=CC=N2)=NC(C)=N1] are 6.69 µM and 66.6%.
With `Cn1cccc1CNCC1CCCn2cc(C(C)(C)C)nc21` (stereo not shown) [DDD01062585, CN1C=CC=C1CNCC1CCCN2C=C(N=C12)C(C)(C)C], in assay [1] (NF54, 72 h), the pIC50 was 6.13 and the inhibition at 2 µM turned out to be 74%. Also, the IC50 in assay [1] (setting [3]) came out at 0.741 µM.
In the case of `CC(C)(C)c1cn2c(n1)C(CNCc1cnn3ccccc13)CCC2` (stereo not shown) [DDD01062586, CC(C)(C)C1=CN2CCCC(CNCC3=C4C=CC=CN4N=C3)C2=N1], the IC50 in assay [1] (setting [3]) was found to be 0.11 µM. Also, the inhibition at 2 µM in assay [1] (NF54, 72 h) was 84.4%.
The corresponding values for `Cc1cn2c(n1)C(CNCc1cccc3c1OCO3)CCC2` (stereo not shown) [DDD01073293, CC1=CN2CCCC(CNCC3=CC=CC4=C3OCO4)C2=N1] are 1.62 µM and 66.7%.
Regarding `CN(C)c1nc(N)nc(CN2CCCC2c2cccs2)n1` (stereo not shown) [DDD01075894, CN(C)C1=NC(N)=NC(CN2CCCC2C2=CC=CS2)=N1], the IC50 in assay [1] (setting [3]) was 2.25 µM. The inhibition at 2 µM in assay [1] (NF54, 72 h) was determined as 66%.
In the same order, the values of `CC(C)N(CCNC(=O)c1[nH]nc2ccc(I)cc12)C(C)C` [DDD01078603, CC(C)N(CCNC(=O)C1=C2C=C(I)C=CC2=NN1)C(C)C] are above 10 µM and 53.7%.
For `COc1c(C)cnc(CN(C)C2CCCCC2)c1C` [DDD01078822, COC1=C(C)C=NC(CN(C)C2CCCCC2)=C1C], the IC50 in assay [1] (setting [3]) came out at 1.45 µM. The inhibition at 2 µM in assay [1] (NF54, 72 h) came to 84.8%.
Turning to `O=C(CN1CCc2sccc2C1)Nc1ccnc2ccnn12` [DDD01078865, O=C(CN1CCC2=C(C1)C=CS2)NC1=CC=NC2=CC=NN12], in assay [1] (setting [3]), the IC50 stood at 0.116 µM. In addition, the inhibition at 2 µM in assay [1] (NF54, 72 h) is 96.4%.
On to `CN1CCC(NCC(O)c2cccc(OCc3ccccc3)c2)CC1` (stereo not shown) [DDD01079164, CN1CCC(CC1)NCC(O)C1=CC=CC(OCC2=CC=CC=C2)=C1], for which, in assay [1] (setting [3]), the IC50 amounted to 6.06 µM. For the same molecule, the inhibition at 2 µM in assay [1] (NF54, 72 h) was found to be 53.3%.
In the case of `Cc1cccc(CN2CCCn3c(nnc3Cn3cccn3)C2)n1` [DDD01084631, CC1=CC=CC(CN2CCCN3C(CN4C=CC=N4)=NN=C3C2)=N1], the IC50 in assay [1] (setting [3]) was found to be 1.04 µM. Moreover, in assay [1] (NF54, 72 h), the inhibition at 2 µM came out at 51.5%.
In the same order, the values of `O=C(C1CC2(CCNCC2)CN1)N1CCN(c2cccc(Cl)c2Cl)CC1` (stereo not shown) [DDD01243908, ClC1=CC=CC(N2CCN(CC2)C(=O)C2CC3(CN2)CCNCC3)=C1Cl] are 4.94 µM and 52.8%.
Consider `COCC(C)NCc1nc(-c2ccc(C)cc2)c(-c2ccccn2)[nH]1` (stereo not shown) [DDD01244737, COCC(C)NCC1=NC(=C(N1)C1=CC=C(C)C=C1)C1=CC=CC=N1], for which, in assay [1] (NF54, 72 h), the pIC50 is 5.79 and the inhibition at 2 µM amounted to 72.4%. In addition, the IC50 in assay [1] (setting [3]) came out at 1.64 µM.
Regarding `Fc1ccc2[nH]c(C3CCCN3Cc3c[nH]cn3)nc2c1` (stereo not shown) [DDD01245473, FC1=CC=C2N=C(NC2=C1)C1CCCN1CC1=CN=CN1], the IC50 in assay [1] (setting [3]) amounted to 1.88 µM. In assay [1] (NF54, 72 h), the inhibition at 2 µM amounted to 53.9%.
Turning to `CCSCC(C)NCc1cn2ccccc2n1` (stereo not shown) [DDD01245879, CCSCC(C)NCC1=CN2C=CC=CC2=N1], in assay [1] (setting [3]), the IC50 was determined as 1.71 µM. For the same molecule, the inhibition at 2 µM in assay [1] (NF54, 72 h) worked out at 74%.
In the same order, the values of `CC(c1cccs1)N(C)Cc1cnc(-c2ccccn2)nc1` (stereo not shown) [DDD01246628, CC(N(C)CC1=CN=C(N=C1)C1=CC=CC=N1)C1=CC=CS1] are 0.293 µM and 81.7%.
The corresponding values for `Cc1ccc2nc(CN(C)Cc3n[nH]c4c3CCCCC4)[nH]c2c1C` [DDD01247714, CN(CC1=NC2=CC=C(C)C(C)=C2N1)CC1=C2CCCCCC2=NN1] are 1.62 µM and 89.8%.
As to `CNc1cc(C)nc(NCc2cc(C)cc3c(C)c(C)[nH]c23)n1` [DDD01248198, CNC1=CC(C)=NC(NCC2=C3NC(C)=C(C)C3=CC(C)=C2)=N1], in assay [1] (NF54, 72 h), the pIC50 is 6.10 and the inhibition at 2 µM was 70.7%. Also, the IC50 in assay [1] (setting [3]) was determined as 0.791 µM.
In the case of `COCc1noc(-c2ccc(N(C)Cc3ncccc3C)nc2)n1` [DDD01248427, COCC1=NOC(=N1)C1=CC=C(N=C1)N(C)CC1=NC=CC=C1C], the IC50 in assay [1] (setting [3]) was 1.02 µM. Also, the inhibition at 2 µM in assay [1] (NF54, 72 h) came out at 58.1%.
In the case of `CCSCCNc1nc(-c2ccccn2)nc2c1c(C)nn2C` [DDD01253625, CCSCCNC1=C2C(C)=NN(C)C2=NC(=N1)C1=CC=CC=N1], in assay [1] (NF54, 72 h), the pIC50 is 5.73 and the inhibition at 2 µM was determined as 58.4%. The IC50 in assay [1] (setting [3]) amounted to 1.89 µM.
In the same order, the values of `Cc1nn(C)c2nc(-c3ccccn3)nc(NCCCOC(C)C)c12` [DDD01254389, CC(C)OCCCNC1=C2C(C)=NN(C)C2=NC(=N1)C1=CC=CC=N1] are 5.77, 61.4% and 1.71 µM.
On to `Cc1cc2nc(C(C)C)cc(NCC(c3ccccn3)N(C)C)n2n1` (stereo not shown) [DDD01256956, CC(C)C1=NC2=CC(C)=NN2C(NCC(N(C)C)C2=CC=CC=N2)=C1], for which the IC50 in assay [1] (setting [3]) is 0.933 µM. In addition, the inhibition at 2 µM in assay [1] (NF54, 72 h) was found to be 64.8%.
`Cc1cnc2c(S(=O)(=O)NC3CCS(=O)(=O)C3)cccc2c1` (stereo not shown) [DDD01296003, CC1=CN=C2C(C=CC=C2S(=O)(=O)NC2CCS(=O)(=O)C2)=C1]: the IC50 in assay [1] (setting [3]) came to 2.28 µM. For the same molecule, in assay [1] (NF54, 72 h), the inhibition at 2 µM was determined as 76.3%.
In the same order, the values of `COc1cc(CNC(c2ccccc2)c2nccn2C)cc(OC)c1` (stereo not shown) [DDD01296506, COC1=CC(OC)=CC(CNC(C2=NC=CN2C)C2=CC=CC=C2)=C1] are 0.513 µM and 58.3%.
Turning to `Cc1cnn(CC2CCCN2Cc2nc(C)c3ccccc3n2)c1` (stereo not shown) [DDD01298810, CC1=CN(CC2CCCN2CC2=NC(C)=C3C=CC=CC3=N2)N=C1], in assay [1] (setting [3]), the IC50 was found to be 0.296 µM. In addition, the inhibition at 2 µM in assay [1] (NF54, 72 h) was 51.9%.
In the same order, the values of `Cc1nnc(NCc2ccccc2Cl)c(C#N)c1C` [DDD01302395, CC1=NN=C(NCC2=CC=CC=C2Cl)C(C#N)=C1C] are above 9.58 µM and 68.1%.

One may read the IC50 as the concentration that inhibits the measured activity by half. In general, inhibition refers to the change of the read-out against control, counted positive when it falls. For orientation: pIC50 means the negative decadic logarithm of the IC50, by convention in mol/L.

Source of the values: article PMC7155171, “Probing the Open Global Health Chemical Diversity Library for Multistage-Active Starting Points for Next-Generation Antimalarials” (ACS Infectious Diseases, 2020).
